From US20200405671A1, “METHODS AND MATERIALS FOR TREATING POLYCYSTIC KIDNEY DISEASE” (Mayo Foundation for Medical Education and Research, priority 2019, published 2020)
“Also recorded” adds a separate entry of the source.

Columns and labels:
[1] = system: Pkd1^RC/RC mice; experiment: Betaine supplementation in drinking water in Pkd1^RC/RC mice: kidney/body weight and cystic index from histological sections; format: in vivo; conditions: p<0.01; for kidney/body weight: euthanized at 6 months of age, no betaine 2.25; for cystic index (percentage of cyst area within the total kidney section): no betaine 21.1%
Experimental: (§1) One month old Pkd1^RC/RC mice were divided into three groups and started treatment with regular water or regular water supplemented with 1% or 2% betaine (FIG. 2) for 5 months (n=16 per group). All mice were euthanized at 6 months of age, and kidneys harvested. Cystic index was determined from histological sections. 1H-NMR-based metabolomics analysis was performed from tissue urine and plasma samples.

[2] = 1H-NMR-based analysis of plasma and tissue betaine concentration after betaine supplementation; format: in vivo; conditions: Pkd1^RC/RC mice, vs no betaine, p<0.001; for tissue betaine concentration: kidney tissue
Experimental: as §1

[3] = system: Pkd1^RC/RC mice; experiment: Intrarenal microvasculature quantified using a capillary index; format: in vivo; conditions: 6 months of age
Experimental: as §1
Intrarenal microvasculature was quantified using a capillary index. Capillaries in the cortex were identified by the presence of lumen, red blood cells, and/or an endothelial cell lining. For the PKD animals, the number of capillaries is calculated adjusting for the cystic area.

[4] = system: Pkd1^RC/RC mice; experiment: Blood pressure (MAP) by tail cuff, CODA non-invasive blood pressure system; format: in vivo; conditions: compared with wild type (WT) animals
Experimental: as §1
Blood pressure was determined during the same time frame (9-11 am) in all animals in all groups, using the CODA non-invasive blood pressure system (Kent Scientific). Briefly, mice were guided into a plastic mouse holder and were left to acclimate to the holder for 5 minutes. Ten blood pressure (BP) measurements within 10 minutes were obtained by tail cuff.

[5] = 1HNMR spectroscopy of stability of betaine in water; format: physicochemical; conditions: 1% and 2% betaine in water, day 0, day 2 and day 8 (course of one week)
Source text: FIG. 2: ^1HNMR spectroscopy depicting stability of betaine in water during the course of 1 week. Three spectral lines on top indicating 2% betaine represent betaine concentration as determined by ^1HNMR spectroscopy at day 0, day, 2 and day 8. Below, three spectral lines indicating 1% betaine represent betaine concentration as determined by ^1HNMR spectroscopy at day 0, day, 2 and day 8. At the bottom, flat spectra can be seen for the animals receiving control water without betaine, indicated as control day 2 and 8. Overall, betaine was stable and non-significant changes in betaine concentration were observed during the course of one week.

[6] = 1% betaine in drinking water for 5 months
[7] = 2% betaine in drinking water for 5 months

plasma betaine concentration ([2]; 1% betaine in drinking water): increased | plasma betaine concentration ([2]; 2% betaine in drinking water): increased | stability of betaine in water (betaine concentration) [5]: stable
Compound: C[N+](C)(C)CC(=O)[O-] [betaine, trimethylglycine]
kidney/body weight [1, 6]: 1.82 | cystic index (percentage of cyst area within the total kidney section) [1, 6]: 11.1% | kidney/body weight [1, 7]: 1.85 | cystic index (percentage of cyst area within the total kidney section) [1, 7]: 9.4% | tissue betaine concentration ([2]; 1% betaine in drinking water): significant increases; also recorded: increased | tissue betaine concentration ([2]; 2% betaine in drinking water): significant increases; also recorded: increased | capillary count (intrarenal microvasculature) ([3]; 1% betaine, female animals): not effective | capillary count (intrarenal microvasculature) ([3]; 1% betaine, male animals): preserved the capillary count | capillary count (intrarenal microvasculature) ([3]; 2% betaine, female animals): preserved capillary count | capillary count (intrarenal microvasculature) ([3]; 2% betaine, male animals): preserved the capillary count | Mean Arterial Pressure (MAP) ([4]; 1% betaine): preserved MAP within WT levels | Mean Arterial Pressure (MAP) ([4]; 2% betaine): preserved MAP within WT levels
